d = 2'-deoxy (DNA)

The record followed here is US20070065850A1, “Method for diagnosis of heart failure” (OSAKA UNIVERSITY, priority 2005, published 2007).

The test system of data set [1] is cultured neonatal rat cardiac myocytes. Kind of data set: CHOP expression by real-time quantitative RT-PCR after treatment with pharmacological ER stress inducers. The data set is classed as cell-based. As to conditions: for CHOP/GAPDH: cultured cardiac myocytes 48 hours after treatment with ER stress inducer, untreated 1.0, mean±SEM. Here is the method:
Primary cultures of cardiac myocytes were prepared from neonatal rat hearts as described previously (13). All procedures were performed in accordance with the guidline of Osaka University School of Medicine with regard to animal care and the “Position of the American Heart Association on Research Animal Use.”
(§1) RT-PCR of human and rat heart samples was performed according to the Omniscript Reverse Transcription handbook (QIAGEN Inc.). The human and rat primers and probes used for quantification of BNP, GRP78, CHOP, and GAPDH were all designed according to the manufacturer's protocol (Applied Biosystems, https://www.appliedbiosystems.com/catalog/). Real-time quantitative RT-PCR was performed with an ABI PRISM 7700 Sequence Detection System (Applied Biosystems) by the relative standard curve method. The target amount was determined from the relative standard curves constructed with serial dilutions of the control total RNA.

In another data set the test system is CHOP. Nature of the data set: CHOP protein level by immunoblotting after siRNA transfection. The note with it: cardiac myocytes treated with tunicamycin; protein measured 48 hrs after transfection; actin internal control. The format is cell-based, rat. Here is the method:
Immunoblotting was performed as described previously (13). Primary antibodies targeting CHOP (sc-793) and actin (sc-1615) were purchased from Santa Cruz Biotechnology. Forty eight hours after the treatment of neonatal rat cardiac myocytes with tunicamycin (Sigma-Aldrich), cardiac myocytes were harvested.
(§2) The inventors designed 3 different short interfering RNAs (siRNA) with 3′ dTdT overhangs to knock down CHOP mRNA (CHOP siRNA-1: 5′-CCUUCACUACUCUUGACCC-3′ (SEQ ID NO. 1), siRNA-2: 5′-GAUCAAGGAAGAACUAGGA-3′ (SEQ ID NO. 2), siRNA-3: 5′-GGAGCAGGAGAAUGAGAGG-3′(SEQ ID NO. 3) and ordered Dharmacon Inc. to synthesize them. After rat cardiac myocytes were isolated, they were incubated in Dulbecco's modified Eagle's medium (Invitrogen Corporation) Opti-MEM (Invitrogen Corporation), siRNA oligonucleotides (CHOP siRNA 1-3) (60 nM) and Optifect (Invitrogen Corporation) were added on the day of cardiac myocyte isolation. As a negative control, cells were transfected with siRNA against firefly luciferase from Photinus pyralis (GL2 siRNA) (15). Messenger RNA and protein levels of CHOP were measured 24 and 48 hrs after the transfection of CHOP siRNA, respectively.
(In general: A western blot detects proteins with antibodies after separation by electrophoresis.)

For another data set, the system named is CHOP mRNA. Nature of the data set: CHOP mRNA knockdown by siRNA transfection (RNA interference), real-time quantitative RT-PCR. The format is cell-based, rat. As to conditions: siRNA 60 nM, mean±SEM. Here is the method: as §1
as §2, with “As a negative control, cells were transfected with siRNA against firefly luciferase from Photinus pyralis (GL2 siRNA) (15).” left out, “respectively. […]” for “respectively.”

In another data set the test system is cardiac myocytes. Kind of data set: MTT assay (cell viability). The data set is classed as cell-based, rat. As to conditions: tunicamycin for 48 hours. On the procedure:
Cardiac myocytes were treated with tunicamycin for 48 hours, after which cell viability was assessed by MTT assay according to the manufacturer's instructions (Cell Counting Kit-8, Wako Pure Chemical Industries, Ltd.). The percentage of viable cells was determined by taking the value for untreated cells as 100%.
as §2

Data set [2] has as its system neonatal rat cardiac myocytes. Kind of data set: Apoptotic cell assay (TUNEL). The format is cell-based. Here is the method: The terminal deoxynucleotidyl transferase-mediated dUTP nick end labeling (TUNEL) assay was performed as described previously (7). Forty eight hours after the treatment of neonatal rat cardiac myocytes with tunicamycin (Sigma-Aldrich), cells were subjected to TUNEL staining. The TUNEL-positive cardiac myocytes counted in DAPI-positive cardiac myocytes (n=100, 5 times) were expressed as a percentage.
as §2

For `C[C@H]1CCC/C=C/[C@@H]2C[C@H](O)C[C@H]2[C@H](O)/C=C/C(=O)O1` [brefeldin A], the CHOP/GAPDH in data set [1] came to 8.1±0.7.
As to `C/C=C(/C)C(=O)O[C@H]1C(C)=C2[C@H]([C@@H]1OC(=O)CCCCCCC)[C@@](C)(OC(C)=O)C[C@H](OC(=O)CCC)[C@@]1(O)[C@H]2OC(=O)[C@@]1(C)O` [thapsigargin], the CHOP/GAPDH in data set [1] is 19.0±0.3.
“CHOP siRNA-2: siRNA with 3′ dTdT overhangs to knock down CHOP mRNA: 5′-GAUCAAGGAAGAACUAGGA-3′ (SEQ ID NO. 2) (RNA, 3' dTdT, backbone not given here)”: the “protein level of CHOP after transfection of siRNA” value with CHOP is “almost completely suppressed”. Besides, in the data set with CHOP mRNA (brefeldin A alone 8.1±0.7), the “CHOP/GAPDH after transfection of siRNA, induction by brefeldin A” value is given as 2.2±0.8. The “CHOP/GAPDH after transfection of siRNA, induction by thapsigargin” value with CHOP mRNA (thapsigargin alone 19.0±0.3) is on record as 2.1±1.0. Besides, in the data set with cardiac myocytes (siRNA 60 nM), the “Effect of siRNA on the tunicamycin-induced decrease of cell viability” value is recorded as “attenuated”. Also, the “Effect of siRNA on the tunicamycin-induced increase of TUNEL-positive cardiac myocytes” value in data set [2] (tunicamycin 48 hours, siRNA 60 nM) was “attenuated”.
Turning to tunicamycin, the “Cell viability (MTT assay)” value in the data set with cardiac myocytes (untreated cells as 100%) is recorded as “decreased”. Further, the “CHOP expression (real-time quantitative RT-PCR)” value in data set [1] (cultured neonatal rat cardiac myocytes treated with tunicamycin, normalized for GAPDH, compared with 0 hour) is given as “increase”. The “Number of TUNEL-positive cardiac myocytes” value in data set [2] (48 hours after treatment with tunicamycin, vs. no treatment) was “increased”.
